Laboratory results: patent publication US20090203577A1 (EXELIXIS, INC., priority 2005, published 2009)

Molecular target: T1, human farnesoid X receptor (Homo sapiens, UniProt Q96RI1)
T1 construct: CMX-farnesoid X receptor (full length human farnesoid X receptor); expressed in transfected cells; host or cells: CV-1 African Green Monkey Kidney cells
T1 sequence (Q96RI1 1-472 isoform Q96RI1-2): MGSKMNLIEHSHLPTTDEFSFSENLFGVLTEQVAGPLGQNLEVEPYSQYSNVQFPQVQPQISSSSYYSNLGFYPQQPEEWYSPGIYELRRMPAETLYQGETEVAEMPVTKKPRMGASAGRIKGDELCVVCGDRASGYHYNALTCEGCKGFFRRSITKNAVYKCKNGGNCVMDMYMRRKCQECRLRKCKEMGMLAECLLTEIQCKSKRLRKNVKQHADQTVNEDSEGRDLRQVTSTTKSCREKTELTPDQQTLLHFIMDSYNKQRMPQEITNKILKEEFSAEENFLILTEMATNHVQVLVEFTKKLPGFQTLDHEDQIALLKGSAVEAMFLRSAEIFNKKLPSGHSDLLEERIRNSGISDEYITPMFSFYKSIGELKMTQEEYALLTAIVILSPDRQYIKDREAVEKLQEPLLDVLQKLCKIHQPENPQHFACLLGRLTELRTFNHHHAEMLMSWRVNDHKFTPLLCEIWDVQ
T1 sequence (P19793 1-462 partner): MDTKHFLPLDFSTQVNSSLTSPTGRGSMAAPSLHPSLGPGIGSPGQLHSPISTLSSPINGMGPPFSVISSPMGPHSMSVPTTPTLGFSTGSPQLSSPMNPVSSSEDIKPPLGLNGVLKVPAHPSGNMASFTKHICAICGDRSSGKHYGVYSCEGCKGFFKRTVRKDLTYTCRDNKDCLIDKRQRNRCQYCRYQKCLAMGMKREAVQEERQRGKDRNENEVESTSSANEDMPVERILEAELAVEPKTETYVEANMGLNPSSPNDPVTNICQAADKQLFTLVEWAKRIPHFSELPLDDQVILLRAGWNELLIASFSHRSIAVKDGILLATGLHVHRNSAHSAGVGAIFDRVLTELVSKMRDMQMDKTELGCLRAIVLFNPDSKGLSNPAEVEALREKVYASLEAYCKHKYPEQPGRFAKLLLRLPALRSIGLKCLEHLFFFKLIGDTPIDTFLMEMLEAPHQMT
Test: FXR in vitro assays (farnesoid X receptor/ECREx7 co-transfection assay, TR-FRET assay), Table I
Format: cell-based
Conditions: for EC50: agonist activity, one or more of the in vitro assays, read-out: EC50; for Emax: read-out: % Efficacy
In short: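 CV-1 monkey kidney cells transfected for an FXR/ECREx7 luciferase co-transfection reporter; luciferase read 18-20 h later in lysates. 8-point dose-response at ½-log spacing, 4 wells per point; EC50/IC50 from four-parameter Hill fit, averaged over at least 3 independent experiments.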

| Structure (SMILES) | EC50 | Emax |
| --- | --- | --- |
| CC(C)OC(=O)C1=CN(C(=O)c2cccc(CN3CCCCCCC3)c2)CC(C)(C)c2c1[nH]c1ccccc21 [Example 176, 1-methylethyl 3-{[3-(azocan-1-ylmethyl)phenyl]carbonyl}-1,1-dimethyl-1,2,3,6-tetrahydroazepino[4,5-b]indole-5-carboxylate] | 100 to 1000 nM | > 100% |
| CC(C)OC(=O)C1=CN(C(=O)c2ccc(F)cc2Cl)CC(C)(C)c2c1[nH]c1ccccc21 [Example 111, 1-methylethyl 3-[(2-chloro-4-fluorophenyl)carbonyl]-1,1-dimethyl-1,2,3,6-tetrahydroazepino[4,5-b]indole-5-carboxylate] | 10 to 100 nM | > 100% |
| CC(C)OC(=O)C1=CN(C(=O)c2ccc(-n3cccn3)cc2)CC(C)(C)c2c1[nH]c1ccccc21 [Example 141, 1-methylethyl 1,1-dimethyl-3-{[4-(1H-pyrazol-1-yl)phenyl]carbonyl}-1,2,3,6-tetrahydroazepino[4,5-b]indole-5-carboxylate] | 10 to 100 nM | > 100% |
| CC(C)OC(=O)C1=CN(C(=O)c2cccc(CN3CCCN(C)CC3)c2)CC(C)(C)c2c1[nH]c1ccccc21 [Example 153, 1-methylethyl 1,1-dimethyl-3-({3-[(4-methyl-1,4-diazepan-1-yl)methyl]phenyl}carbonyl)-1,2,3,6-tetrahydroazepino[4,5-b]indole-5-carboxylate] | 1000 to 10000 nM | > 100% |
| CC(C)OC(=O)C1=CN(C(=O)c2ccccc2)CC(C)(C)c2c1[nH]c1ccccc21 [Example 62, 1-methylethyl 1,1-dimethyl-3-(phenylcarbonyl)-1,2,3,6-tetrahydroazepino[4,5-b]indole-5-carboxylate] | 1 to 10 nM | > 100% |
| COc1ccccc1C(=O)N1C=C(C(=O)OC(C)C)c2[nH]c3ccccc3c2C(C)(C)C1 [Example 69, 1-methylethyl 1,1-dimethyl-3-{[2-(methyloxy)phenyl]carbonyl}-1,2,3,6-tetrahydroazepino[4,5-b]indole-5-carboxylate] | 10 to 100 nM | > 100% |
| CC(C)OC(=O)C1=CN(C(=O)NC2CCCC2)CC(C)(C)c2c1[nH]c1ccccc21 [Example 44, 1-methylethyl 3-[(cyclopentylamino)carbonyl]-1,1-dimethyl-1,2,3,6-tetrahydroazepino[4,5-b]indole-5-carboxylate] | 10 to 100 nM | > 100% |
| CC(C)OC(=O)C1=CN(C(=O)c2cc(CN3CCOCC3)ccc2F)CC(C)(C)c2c1[nH]c1ccccc21 [Example 155, 1-methylethyl 3-{[2-fluoro-5-(morpholin-4-ylmethyl)phenyl]carbonyl}-1,1-dimethyl-1,2,3,6-tetrahydroazepino[4,5-b]indole-5-carboxylate] | 100 to 1000 nM | > 100% |
| COc1cccc(C(=O)N2C=C(C(=O)OC(C)C)c3[nH]c4ccccc4c3C(C)(C)C2)c1 [Example 88, 1-methylethyl 1,1-dimethyl-3-{[3-(methyloxy)phenyl]carbonyl}-1,2,3,6-tetrahydroazepino[4,5-b]indole-5-carboxylate] | 10 to 100 nM | > 100% |
| CC(C)OC(=O)C1=CN(C(=O)c2cccc(CN(C)C)c2)CC(C)(C)c2c1[nH]c1ccccc21 [Example 108, 1-methylethyl 3-({3-[(dimethylamino)methyl]phenyl}-carbonyl)-1,1-dimethyl-1,2,3,6-tetrahydroazepino[4,5-b]indole-5-carboxylate] | 100 to 1000 nM | > 100% |
| CCN(CC)C(=O)N1C=C(C(=O)OC(C)C)c2[nH]c3ccccc3c2C(C)(C)C1 [Example 52, 1-methylethyl 3-[(diethylamino)carbonyl]-1,1-dimethyl-1,2,3,6-tetrahydroazepino[4,5-b]indole-5-carboxylate] | 10 to 100 nM | > 100% |
| CC1(C)CN(C(=O)c2ccc(F)c(F)c2)C=C(C(=O)NCC(O)CO)c2[nH]c3ccccc3c21 (stereo not shown) [Example 162, 3-[(3,4-difluorophenyl)carbonyl]-N-(2,3-dihydroxypropyl)-1,1-dimethyl-1,2,3,6-tetrahydroazepino[4,5-b]indole-5-carboxamide] | > 10000 nM | – |
| CC(C)OC(=O)C1=CN(C(=O)c2cccc(C3CCNCC3)c2)CC(C)(C)c2c1[nH]c1ccccc21 [Example 95, 1-methylethyl 1,1-dimethyl-3-[(3-piperidin-4-ylphenyl)carbonyl]-1,2,3,6-tetrahydroazepino[4,5-b]indole-5-carboxylate] | > 10000 nM | – |
| CC(C)OC(=O)C1=CN(C(=O)c2cccc(CN3CCN(C(=O)c4ccccc4)CC3)c2)CC(C)(C)c2c1[nH]c1ccccc21 [Example 175, 1-methylethyl 1,1-dimethyl-3-[(3-{[4-(phenylcarbonyl)piperazin-1-yl]methyl}phenyl)carbonyl]-1,2,3,6-tetrahydroazepino[4,5-b]indole-5-carboxylate] | 100 to 1000 nM | > 100% |
| CC(C)OC(=O)C1=CN(C(=O)c2c(F)cccc2F)CC(C)(C)c2c1[nH]c1ccccc21 [Example 75, 1-methylethyl 3-[(2,6-difluorophenyl)carbonyl]-1,1-dimethyl-1,2,3,6-tetrahydroazepino[4,5-b]indole-5-carboxylate] | 1 to 10 nM | > 100% |
| CC(C)OC(=O)C1=CN(C(=O)c2ccc(F)c(Br)c2)CC(C)(C)c2c1[nH]c1ccccc21 [Example 154, 1-methylethyl 3-[(3-bromo-4-fluorophenyl)carbonyl]-1,1-dimethyl-1,2,3,6-tetrahydroazepino[4,5-b]indole-5-carboxylate] | 10 to 100 nM | > 100% |
| CC(C)OC(=O)C1=CN(C(=O)C23C[C@H]4C[C@@H](C2)C[C@@H](C3)C4)CC(C)(C)c2c1[nH]c1ccccc21 [Example 24, 1-methylethyl 1,1-dimethyl-3-[(3s,5s,7s)-tricyclo[3.3.1.1~3,7~]dec-1-ylcarbonyl]-1,2,3,6-tetrahydroazepino [4,5-b]indole-5-carboxylate] | 10 to 100 nM | > 100% |
| COc1ccc(C(=O)N2C=C(C(=O)OC(C)C)c3[nH]c4ccccc4c3C(C)(C)C2)cc1OC [Example 100, 1-methylethyl 3-{[3,4-bis(methyloxy)phenyl]car-bonyl}-1,1-dimethyl-1,2,3,6-tetrahydroazepino[4,5-b]indole-5-carboxylate] | 10 to 100 nM | > 100% |
| CC(C)OC(=O)C1=CN(C(=O)c2cccc(CN3CCN(C(=O)Nc4ccccc4)CC3)c2)CC(C)(C)c2c1[nH]c1ccccc21 [Example 184] | 10 to 100 nM | > 100% |
| CC(C)OC(=O)C1=CN(C(=O)c2cc(F)c(F)c(OCCN3CCCCC3)c2)CC(C)(C)c2c1[nH]c1ccccc21 [Example 180, 1-methylethyl 3-({3,4-difluoro-5-[(2-piperidin-1-ylethyl)oxy]phenyl}carbonyl)-1,1-dimethyl-1,2,3,6-tetrahydroazepino[4,5-b]indole-5-carboxylate] | 10 to 100 nM | > 100% |
| CC(C)OC(=O)C1=CN(C(=O)c2ccc(C(F)(F)F)c(F)c2)CC(C)(C)c2c1[nH]c1ccccc21 [Example 84, 1-methylethyl 3-{[3-fluoro-4-(trifluoromethyl)phenyl]car-bonyl}-1,1-dimethyl-1,2,3,6-tetrahydroazepino[4,5-b]indole-5-carboxylate] | 10 to 100 nM | > 100% |
| CC(C)OC(=O)C1=CN(C(=O)c2ccc3c(c2)OC(F)(F)O3)CC(C)(C)c2c1[nH]c1ccccc21 [Example 92, 1-methylethyl 3-[(2,2-difluoro-1,3-benzodioxol-5-yl)carbonyl]-1,1-dimethyl-1,2,3,6-tetrahydroazepino[4,5-b]indole-5-carboxylate] | 100 to 1000 nM | > 100% |
| CC1(C)CN(C(=O)c2ccc(F)c(F)c2)C=C(C(=O)NCCC(=O)O)c2[nH]c3ccccc3c21 [Example 101, N-({3-[(3,4-difluorophenyl)carbonyl]-1,1-dimethyl-1,2,3,6-tetrahydroazepino[4,5-b]indol-5-yl}carbonyl)-beta-alanine] | > 10000 nM | – |
| Cc1ccc(C(=O)N2C=C(C(=O)OC(C)C)c3[nH]c4ccccc4c3C(C)(C)C2)cc1 [Example 87, 1-methylethyl 1,1-dimethyl-3-[(4-methylphenyl)carbonyl]-1,2,3,6-tetrahydroazepino[4,5-b]indole-5-carboxylate] | 10 to 100 nM | > 100% |
| CC(C)OC(=O)C1=CN(C(=O)c2ccc(C3CCNCC3)cc2)CC(C)(C)c2c1[nH]c1ccccc21 [Example 94, 1-methylethyl 1,1-dimethyl-3-[(4-piperidin-4-ylphenyl)carbonyl]-1,2,3,6-tetrahydroazepino[4,5-b]indole-5-carboxylate] | > 10000 nM | – |
